The subject of assay [1] is Staphylococcus aureus (ATCC#14154). In words: Micro-broth dilution susceptibility testing (MIC/MBC). The class given is cell-based. The settings on record: for effect against Staphylococcus aureus (in words): ATCC#14154, grown in broth over 48 hours. As for the experimental part: (§1) A micro-broth dilution technique was used to determine the susceptibility of the strains of Staphylococcus aureus. Susceptibility was expressed as minimum inhibitory (MIC) and/or minimum bactericidal (MBC) concentration.
(§2) Various essential oils, carvacrol, and monolaurin were tested alone or in combination for the treatment of Staphylococcus aureus infection. Twelve essential oils were tested in the study: oregano oil, olive oil (the diluent), pumpkin oil, fenugreek oil, myrtle oil, allspice oil, sage oil, lavender oil, bay leaf oil, cumin oil, cinnamon oil, and cassia oil.
(§3) The stock solutions of oregano oil, other essential oils, olive oil, and carvacrol were dissolved in 50% ethanol-Tween 80 solvents. Antibiotics were dissolved in 50% ethanol and used as positive controls. Solvent controls (addition of carrier without essential oil and monolaurin) were also included for reference in addition to regular controls.
(§4) The Sabouraud's glucose (S.g.) broth containing varying amounts (logarithmic, serially and 2-fold diluted) of oregano oil, other essential oils, carvacrol, monolaurin and various controls were inoculated with actively dividing Staphylococcus aureus cells. The cultures were incubated for about 24 hours and about 48 hours at a temperature of about 30° C. on a metabolic rotary shaker (220 rev/min), and the growth was monitored both visually and colorimetrically (at a wavelength of about […]). The minimum inhibitory concentration (MIC) was defined as the lowest concentration required to arrest the growth of the bacteria at the end of 24 hour of incubation. Minimum bactericidal concentration (MBC) was determined by sub-culturing a 0.01 ml aliquot of the medium drawn from the culture tubes after 48 hours on S.g. agar plates and incubated further for bacterial growth. The plates were scored for growth of the bacteria colonies. The lowest concentration of the antimicrobial agent causing negative growth (fewer than three colonies) was considered as MBC. In every case, the MIC and MBC were virtually the same.
A micro dilution study on Staphylococcus aureus (ATCC#14154) grown in broth over 48 hours was performed to determine the comparative effects of various antibiotics and essential oils against Staphylococcus aureus infection at the selected concentrations.
On the technique in general: Broth dilution looks for growth in wells or tubes with falling amounts of substance.

For assay [2], the system named is Staphylococcus aureus (ATCC#14775). In words: Murine systemic bacteremia model, 30-day survival. The class given is in vivo, mice. The conditions noted are these: for in vivo effect on survival (in words): mice infected with 5xLD50, daily gavage 30 days; for mice surviving for 30 days (survivors/group): second study, groups of eight, 3.2 mg of each agent by gavage, vancomycin 400 μg i.p.; for mice surviving thirty days (survivors/total): summary across the in vivo studies. As for the experimental part: Female BALB/c mice (about 15 grams to 20 grams in weight) were obtained from Taconic Farms (Germantown, N.Y.). The mice were maintained in a controlled environment at about 24° C. with a 12-hour light and 12-hour dark cycle and were acclimatized in the animal facility for about 3-5 days before testing. The mice were housed in groups of five, fed commercial rodent pellets, and given water ad libitum throughout the experiments. The Animal Welfare Board at Georgetown University Medical Center approved the protocol for the entire investigation.
In two separate experiments, groups of mice (6 and 8 respectively) infected with Staphylococcus aureus (5×LD50) were gavaged daily with oregano oil, carvacrol, monolaurin or combined oregano oil-monolaurin in 0.2 ml of olive oil for 30 days. The amount of bacterial agents administered was calculated based on the body weight of the mice. Control mice received daily gavages of either olive oil alone (negative control) or olive oil orally plus vancomycin (400 mcg) i.p. (positive control).
In the first in vivo experiment, the daily dose of oregano oil was either 2.0 μl (1.6 mg) or 4.0 μl (3.2 mg). […] In the second in vivo study, the daily dose of oregano oil was the same as the higher dose used before, i.e., 4.0 μl (3.2 mg). Monolaurin was given at the same dose; and when both agents were combined, the same individual doses were used, i.e., 3.2 mg of each. Both experiments were terminated at the end of 30 days. The body weight, the disease status, and the overall health of the mice during the experiments were recorded. The pathological status of the mice was determined by visual examination of the internal organs after their death or sacrifice at the completion of the experiment. Culturing aliquots of kidney homogenates on S.g. agar plates were tested for the renal burden of Staphylococcus aureus.
Furthermore, the in vivo therapeutic effects of the natural edible oregano oil and one of its major constituents, carvacrol, were examined in a murine systemic bacteremia model. […] Groups of six mice infected with Staphylococcus aureus (ATCC#14775) (5×LD50) were gavaged with varying amounts of oregano oil (2.0 μl 1.6 mg; and 4.0 μl 3.2 mg) or injected i.p. with vancomycin (400 μg) daily for 30 days. […] Fifty percent of the mice (3/6) receiving oregano oil (3.2 mg) survived over the thirty days, while only one of six receiving 1.6 mg oregano oil survived for 30 days. Also, 50% of those receiving vancomycin (400 μg) survived for 30 days, while all in the control group died within a three-day period. […] In contrast, numerous abscesses were noted and renal cultures were positive in all dying mice.
In a separate in vivo study, the effects of using monolaurin, either alone and in combination with oregano oil, were investigated and compared to the effects of oregano oil alone. Groups of eight mice were infected with five times the LD50 (5×LD50) of Staphylococcus aureus (A TIC #14775). Fifty percent of the mice (4/8) injected daily with vancomycin (400 μg i.p.) survived for the thirty days of study in contrast to the control group where all eight mice died within a week's time. In the three test groups, 3/8 survived for 30 days in the oregano oil group (3.2 mg), 4/8 survived in the monolaurin group (3.2 mg), and 5/8 survived in the group receiving the combination of oregano oil (3.2 mg) and monolaurin (3.2 mg). No abscesses were seen on inspection, and no bacterial growth was found in the kidney tissue of the 30-day survivors.

The test system is the same in assay [3]. Briefly: Micro-broth dilution susceptibility testing (MIC/MBC). The assay is classed as cell-based. The settings on record: for killing of Staphylococcus aureus in vitro (summary): summary statement. As for the experimental part:
as §1, §2, §3, §4
The micro dilution study was performed with another strain of Staphylococcus aureus (ATCC#14775). Although the results from the two strains (ATCC#14775 and ATCC#14154) were generally similar, there were some minor differences. […] Oregano oil provided efficacy against the ATCC#14775 strain infections at the concentration as low as 0.25 mg oregano oil. Carvacrol provided efficacy against the ATCC#14775 strain infections at a phenol content equivalent to that in 0.5 mg oregano oil.
The in vitro experiment on Staphylococcus aureus (ATCC#14775) was performed to investigate the efficacy of using monolaurin alone, using monolaurin in combination with oregano oil, or using oregano oil alone.

A value given as a limit tells only on which side of the number the result lay.

`[H]/N=C(/N)N[C@H]1[C@H](O)[C@@H](O)[C@H](O[C@@H]2O[C@@H](C)[C@](O)(C=O)[C@H]2O[C@@H]2O[C@@H](CO)[C@H](O)[C@@H](O)[C@@H]2NC)[C@@H](N/C(N)=N\[H])[C@@H]1O` [Streptomycin, streptomycin]: the “effect against Staphylococcus aureus (in words)” value in assay [1] was “did not completely kill the bacteria”.

`Cc1ccc(C(C)C)cc1O` [carvacrol]: in assay [1] (ATCC#14154, carvacrol expressed as oregano oil equivalent), the “effective concentration, as comparable dose of oregano oil (phenol content)” value came out at 0.5 mg. Also, in assay [1] (relative to one oregano oil dosage, strain not specified), the “phenol content needed for the same efficacy as oregano oil” value is “twice the phenol content”. Also, the “survival time (none survived beyond)” value in assay [2] (first experiment, twelve mice, two doses equivalent to phenol content in 1.6 mg and 3.2 mg oregano oil) is not above 21 days. Also, the “renal culture after death” value in assay [2] (first in vivo study, carvacrol at phenol-equivalent doses) is on record as “Staphylococcus aureus was grown out of their kidneys”. For the same compound, the “in vivo effect on survival (in words)” value in assay [2] is “prolonged survival”; in assay [2] (listed as Carvacrol) it was “delayed death but could not cure the mice”. Further, the “effective phenol content, as equivalent amount of oregano oil” value in assay [3] (ATCC#14775, carvacrol expressed as oregano oil equivalent) worked out at 0.5 mg. In assay [3], the “killing of Staphylococcus aureus in vitro (summary)” value is “killed Staphylococcus aureus effectively in vitro”.

With `CCCCCCCCCCCC(=O)OCC(O)CO` (stereo not shown) [monolaurin, glycerol monolaurate], in assay [2], the “in vivo effect on survival (in words)” value is “protective effect”, the “mice surviving for 30 days (survivors/group)” value was 4/8 and the “mice surviving thirty days (survivors/total)” value was 4/8. Moreover, in assay [3] (ATCC#14775, 0.125 mg of each agent), the “growth after two days of incubation” value is “A few Staphylococcus aureus (ATCC#14775) colonies grew”. The “killing of Staphylococcus aureus in vitro (summary)” value in assay [3] is given as “killed Staphylococcus aureus effectively in vitro”.

With `CN[C@H](CC(C)C)C(=O)N[C@H]1C(=O)N[C@@H](CC(N)=O)C(=O)N[C@H]2C(=O)N[C@H]3C(=O)N[C@H](C(=O)N[C@H](C(=O)O)c4cc(O)cc(O)c4-c4cc3ccc4O)[C@H](O)c3ccc(c(Cl)c3)Oc3cc2cc(c3O[C@@H]2O[C@H](CO)[C@@H](O)[C@H](O)[C@H]2O[C@H]2C[C@](C)(N)[C@H](O)[C@H](C)O2)Oc2ccc(cc2Cl)[C@H]1O` [vancomycin], in assay [1], the “effect against Staphylococcus aureus (in words)” value is listed as “completely destroyed the bacteria”. Also, the “mice surviving for 30 days” value in assay [2] (first experiment, groups of six, 400 μg i.p. daily) is given as 50%. Moreover, in assay [2], the “mice surviving for 30 days (survivors/group)” value is 4/8 and the “mice surviving thirty days (survivors/total)” value is 7/14.

Consider penicillin, for which the “effect against Staphylococcus aureus (in words)” value in assay [1] was “essentially showed no effect”.

For the origin of these results see patent US11109607B2, “Oil-based compositions for enhancing oral health and general wellness in humans” (priority 2013, dated 2021).
